Where two headings read alike, the source gives them in different places. *1 amine or outer side, *2 acyl side, *3 side chain or, on linkers, in order; H or OH if unused. Where a SMILES comes first, the peptide text is derived from it. Where no end group is shown, it is not given here. Side-chain parts run from the residue outwards. The star is where a group is joined. γGlu = O=C(O)[C@H](CCC(=O)[*:2])N[*:1]; Palmitoyl = CCCCCCCCCCCCCCCC(=O)*; Hexanoyl = CCCCCC(=O)*
T1: human VPAC2 (Homo sapiens, UniProt P41587)
T1 construct: expressed in transfected cells
T1 sequence (P41587 24-438): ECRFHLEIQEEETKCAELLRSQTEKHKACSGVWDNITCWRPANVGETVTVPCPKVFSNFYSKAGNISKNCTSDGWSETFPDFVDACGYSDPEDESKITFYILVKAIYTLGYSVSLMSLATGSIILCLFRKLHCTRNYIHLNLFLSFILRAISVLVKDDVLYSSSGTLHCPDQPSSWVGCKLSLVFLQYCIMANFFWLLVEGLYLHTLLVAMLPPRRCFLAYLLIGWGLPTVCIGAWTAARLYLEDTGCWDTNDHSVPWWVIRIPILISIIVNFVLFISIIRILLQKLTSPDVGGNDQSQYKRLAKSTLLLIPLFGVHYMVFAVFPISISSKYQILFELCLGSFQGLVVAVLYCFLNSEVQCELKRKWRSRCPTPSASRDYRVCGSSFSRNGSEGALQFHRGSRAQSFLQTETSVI

T2: human VPAC1 (Homo sapiens, UniProt P32241)
T2 sequence (P32241 31-457): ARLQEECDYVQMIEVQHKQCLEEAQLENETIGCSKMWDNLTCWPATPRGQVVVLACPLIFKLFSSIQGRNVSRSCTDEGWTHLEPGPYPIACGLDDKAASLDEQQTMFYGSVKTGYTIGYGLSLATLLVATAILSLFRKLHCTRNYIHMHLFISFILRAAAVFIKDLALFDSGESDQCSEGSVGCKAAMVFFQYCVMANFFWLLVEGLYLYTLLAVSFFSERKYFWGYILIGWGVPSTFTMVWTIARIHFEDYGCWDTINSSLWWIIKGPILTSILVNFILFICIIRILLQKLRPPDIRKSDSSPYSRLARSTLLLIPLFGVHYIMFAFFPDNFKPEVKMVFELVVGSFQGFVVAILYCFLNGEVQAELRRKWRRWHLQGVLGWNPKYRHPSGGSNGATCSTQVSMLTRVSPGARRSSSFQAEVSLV

T3: human VPAC1 receptor (human) (UniProt P32241)
T3 sequence: T2 sequence (P32241 31-457)

T4: human VPAC2 receptor (human) (UniProt P41587)
T4 sequence: T1 sequence (P41587 24-438)

T5: rat VPAC1 receptor (rat, UniProt P30083)
T5 sequence: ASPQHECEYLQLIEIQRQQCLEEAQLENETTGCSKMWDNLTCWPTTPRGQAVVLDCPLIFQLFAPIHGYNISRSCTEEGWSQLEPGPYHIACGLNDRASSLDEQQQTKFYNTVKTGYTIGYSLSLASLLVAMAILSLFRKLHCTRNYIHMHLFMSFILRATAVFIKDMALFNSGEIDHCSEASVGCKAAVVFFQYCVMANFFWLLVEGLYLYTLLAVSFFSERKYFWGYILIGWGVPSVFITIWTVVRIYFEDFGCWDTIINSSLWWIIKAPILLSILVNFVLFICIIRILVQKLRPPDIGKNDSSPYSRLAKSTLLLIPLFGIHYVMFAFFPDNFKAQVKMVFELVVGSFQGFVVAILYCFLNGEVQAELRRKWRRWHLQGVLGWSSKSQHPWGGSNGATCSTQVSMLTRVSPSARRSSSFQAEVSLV

T6: rat VPAC2 receptor (rat, UniProt P35000)
T6 sequence: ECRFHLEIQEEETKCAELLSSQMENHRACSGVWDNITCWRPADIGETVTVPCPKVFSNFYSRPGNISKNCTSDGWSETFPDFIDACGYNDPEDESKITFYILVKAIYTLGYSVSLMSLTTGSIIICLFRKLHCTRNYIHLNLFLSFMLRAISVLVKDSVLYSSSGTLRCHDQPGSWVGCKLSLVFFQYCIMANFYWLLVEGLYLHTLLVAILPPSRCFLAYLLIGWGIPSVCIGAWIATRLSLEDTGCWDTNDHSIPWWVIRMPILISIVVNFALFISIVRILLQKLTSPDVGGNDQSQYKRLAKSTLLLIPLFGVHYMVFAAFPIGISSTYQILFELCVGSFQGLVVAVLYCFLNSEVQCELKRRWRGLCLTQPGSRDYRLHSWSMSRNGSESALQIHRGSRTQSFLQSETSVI

B1: P30 (peptide)
peptide: Hexanoyl-HSDAVFTDNYTRLRKQVAAKKYLQSIKNSRTSPPP-NH2
SMILES: CCCCCC(=O)N[C@@H](Cc1c[nH]cn1)C(=O)N[C@@H](CO)C(=O)N[C@@H](CC(=O)O)C(=O)N[C@@H](C)C(=O)N[C@H](C(=O)N[C@@H](Cc1ccccc1)C(=O)N[C@H](C(=O)N[C@@H](CC(=O)O)C(=O)N[C@@H](CC(N)=O)C(=O)N[C@@H](Cc1ccc(O)cc1)C(=O)N[C@H](C(=O)N[C@@H](CCCNC(=N)N)C(=O)N[C@@H](CC(C)C)C(=O)N[C@@H](CCCNC(=N)N)C(=O)N[C@@H](CCCCN)C(=O)N[C@@H](CCC(N)=O)C(=O)N[C@H](C(=O)N[C@@H](C)C(=O)N[C@@H](C)C(=O)N[C@@H](CCCCN)C(=O)N[C@@H](CCCCN)C(=O)N[C@@H](Cc1ccc(O)cc1)C(=O)N[C@@H](CC(C)C)C(=O)N[C@@H](CCC(N)=O)C(=O)N[C@@H](CO)C(=O)N[C@H](C(=O)N[C@@H](CCCCN)C(=O)N[C@@H](CC(N)=O)C(=O)N[C@@H](CO)C(=O)N[C@@H](CCCNC(=N)N)C(=O)N[C@H](C(=O)N[C@@H](CO)C(=O)N1CCC[C@H]1C(=O)N1CCC[C@H]1C(=O)N1CCC[C@H]1C(N)=O)[C@@H](C)O)[C@@H](C)CC)C(C)C)[C@@H](C)O)[C@@H](C)O)C(C)C

Columns and labels:
human VPAC2 [1] = molecular target: T1, human VPAC2; assay: DiscoveRx cAMP in vitro potency, human VPAC2; format: cell-based
Method: (§1) Also, the cells are washed twice. The cells are incubated in assay buffer plus IBMX for 15 minutes at room temperature. […] The stimuli are present for 30 minutes. Then, the assay buffer is gently removed. […] At day 3, the assay described above for the VPAC2 receptor cell line is performed.

human VPAC2 [2] = molecular target: T1, human VPAC2; assay: Alpha screen cAMP in vitro potency, human VPAC2; format: cell-based
human PAC1 [3] = molecular target: T7, human PAC1 (Homo sapiens, UniProt P41586); assay: cell-based
T7 sequence (P41586 21-468): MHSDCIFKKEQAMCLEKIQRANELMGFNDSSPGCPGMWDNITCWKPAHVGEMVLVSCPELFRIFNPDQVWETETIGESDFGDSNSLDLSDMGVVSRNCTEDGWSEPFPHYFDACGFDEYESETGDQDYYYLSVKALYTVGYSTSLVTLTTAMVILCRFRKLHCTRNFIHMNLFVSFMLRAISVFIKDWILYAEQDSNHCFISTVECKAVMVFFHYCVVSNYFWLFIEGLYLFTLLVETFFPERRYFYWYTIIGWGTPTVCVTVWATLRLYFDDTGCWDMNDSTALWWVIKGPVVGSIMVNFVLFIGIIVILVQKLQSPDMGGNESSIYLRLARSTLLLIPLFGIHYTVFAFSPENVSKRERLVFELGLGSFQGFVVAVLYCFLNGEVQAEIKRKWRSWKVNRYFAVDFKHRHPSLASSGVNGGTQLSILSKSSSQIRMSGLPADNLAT
Method: as §1

human VPAC2 [4] = molecular target: T1, human VPAC2; assay: Filter binding assay, human VPAC2 membranes, 125I-labeled VIP tracer
human PAC1 [5] = molecular target: T7, human PAC1; assay: biochemical
Normal Wistar rats = assay: Intravenous glucose tolerance test (IVGTT); format: in vivo; settings: Wistar rat, insulin
Method: Intravenous glucose tolerance test (IVGTT): Normal Wistar rats are fasted overnight and are anesthetized prior to the experiment. A blood sampling catheter is inserted into the rats. The compound is given in the jugular vein. Blood samples are taken from the carotid artery. A blood sample is drawn immediately prior to the injection of glucose along with the compound. After the initial blood sample, glucose mixed with compound is injected intravenously (i.v.). A glucose challenge of 0.5 g/kg body weight is given, injecting a total of 1.5 mL vehicle with glucose and agonist per kg body weight. The peptide concentration vary to produce the desired dose in μg/kg. Blood samples are drawn at 2, 4, 6 and 10 minutes after giving glucose. The control group of animals receives the same vehicle along with glucose, but with no compound added. In some instances, a 30 minute post-glucose blood sample is drawn. Aprotinin is added to the blood sample (250 kIU/ml blood). The serum is then analyzed for glucose and insulin using standard methodologies.
The assay uses a formulated and calibrated peptide stock in PBS. Normally, this stock is a prediluted 100 μM stock. However, a more concentrated stock with approximately 1 mg agonist per mL is used. The specific concentration is always known. Variability in the maximal response is mostly due to variability in the vehicle dose.

human VPAC1 [6] = molecular target: T2, human VPAC1; assay: Filter binding assay, human VPAC1 membranes, 125I-labeled VIP tracer; set-up: expressed in transfected cells
human VPAC1 [7] = molecular target: T2, human VPAC1; assay: DiscoveRx cAMP in vitro potency, human VPAC1; format: cell-based; set-up: expressed in transfected cells; host or cells: CHO-PO, transient transfection (Lipofectamine)
Method: as §1

rat VPAC2 receptor [8] = molecular target: rat VPAC2 receptor (Rattus norvegicus, UniProt P35000); assay: cell-based
Method: DiscoveRx: A CHO—S cell line stably expressing human VPAC2 receptor in a 96-well microtiter plate is seeded with 50,000 cells/well the day before the assay. The cells are allowed to attach for 24 hours in 200 μL culture medium. On the day of the experiment, the medium is removed. Also, the cells are washed twice. The cells are incubated in assay buffer plus IBMX for 15 minutes at room temperature. Afterwards, the stimuli are added and are dissolved in assay buffer. The stimuli are present for 30 minutes. Then, the assay buffer is gently removed. The cell lysis reagent of the DiscoveRx cAMP kit is added. Thereafter, the standard protocol for developing the cAMP signal as described by the manufacturer is used (DiscoveRx Inc., USA). EC50 values for cAMP generation are calculated from the raw signal or are based on absolute cAMP levels as determined by a standard curve performed on each plate.
CHO—PO cells are transiently transfected with rat VPAC1 or VPAC2 receptor DNA.

human PAC1 receptor [9] = molecular target: T8, human PAC1 receptor (human, UniProt P41586)
Target sequence in this assay (P41586 21-468): as above

[10] = molecular target: T3, human VPAC1 receptor (human)
[11] = molecular target: T4, human VPAC2 receptor (human)
rat VPAC1 receptor = molecular target: T5, rat VPAC1 receptor; assay: cell-based or functional assay
human PAC1 receptor [12] = molecular target: T8, human PAC1 receptor; assay: cell-based or functional assay
rat VPAC2 receptor [13] = molecular target: T6, rat VPAC2 receptor; assay: cell-based or functional assay

Molecule	EC50 (human VPAC2 [1]) [nM]	EC50 (human VPAC2 [2]) [nM]	IC50 (human VPAC2 [4]) [nM]	IC50 (human VPAC1 [6]) [nM]	EC50 (nM) for cAMP generation, DiscoveRx (human PAC1 receptor [9]) [nM]	EC50 (nM) for cAMP generation, DiscoveRx [10] [nM]	EC50 (nM) for cAMP generation, Alpha Screen [11] [nM]	EC50 (nM) for cAMP generation, DiscoveRx [11] [nM]	EC50 for cAMP generation, DiscoveRx (rat VPAC1 receptor) [nM]	further results
CCCCCC(=O)N[C@@H](Cc1c[nH]cn1)C(=O)N[C@@H](CO)C(=O)N[C@@H](CC(=O)O)C(=O)N[C@@H](C)C(=O)N[C@H](C(=O)N[C@@H](Cc1ccccc1)C(=O)N[C@H](C(=O)N[C@@H](CC(=O)O)C(=O)N[C@@H](CC(N)=O)C(=O)N[C@@H](Cc1ccc(O)cc1)C(=O)N[C@H](C(=O)N[C@@H](CCCNC(=N)N)C(=O)N[C@@H](CC(C)C)C(=O)N[C@@H](CCCNC(=N)N)C(=O)N[C@@H](CCCCN)C(=O)N[C@@H](CCC(N)=O)C(=O)N[C@H](C(=O)N[C@@H](C)C(=O)N[C@@H](C)C(=O)N[C@@H](CCCCN)C(=O)N[C@@H](CCCCN)C(=O)N[C@@H](Cc1ccc(O)cc1)C(=O)N[C@@H](CC(C)C)C(=O)N[C@@H](CCC(N)=O)C(=O)N[C@@H](CO)C(=O)N[C@H](C(=O)N[C@@H](CCCCN)C(=O)N[C@@H](CC(N)=O)C(=O)N[C@@H](CO)C(=O)N[C@@H](CCCNC(=N)N)C(=O)N[C@H](C(=O)N[C@@H](CO)C(=O)N1CCC[C@H]1C(=O)N1CCC[C@H]1C(=O)N1CCC[C@H]1C(N)=O)[C@@H](C)O)[C@@H](C)CC)C(C)C)[C@@H](C)O)[C@@H](C)O)C(C)C [Agonist P30] (Hexanoyl-HSDAVFTDNYTRLRKQVAAKKYLQSIKNSRTSPPP-NH2)	0.09	0.08	0.22	33.8						EC50 (human PAC1 [3]): 27 nM; IC50 (human PAC1 [5]): 214 nM; % increase AUC: Dose = 0.1 μg/kg (Normal Wistar rats; dose 0.1 μg/kg): 67%; % increase AUC: Dose = 0.5 μg/kg (Normal Wistar rats; dose 0.5 μg/kg): 241%; % increase AUC: Dose = 10 μg/kg (Normal Wistar rats; dose 10 μg/kg): 378%; Rat Serum Stability (Estimated purity in % after 72 hours) (rat serum, 72 hours): 1.0%; EC50 (human VPAC1 [7]): 6.45 nM
CCCCCCCCCCCCCCCC(=O)N[C@@H](CCC(=O)NCCCC[C@H](NC(=O)[C@@H]1CCCN1C(=O)[C@@H]1CCCN1C(=O)[C@@H]1CCCN1C(=O)[C@H](CO)NC(=O)[C@@H](NC(=O)[C@H](CCCNC(=N)N)NC(=O)[C@H](CO)NC(=O)[C@H](CC(N)=O)NC(=O)[C@H](CCCCN)NC(=O)[C@@H](NC(=O)[C@H](CO)NC(=O)[C@H](CCC(N)=O)NC(=O)[C@H](CC(C)C)NC(=O)[C@H](Cc1ccc(O)cc1)NC(=O)[C@H](CCCCN)NC(=O)[C@H](CCCCN)NC(=O)[C@H](C)NC(=O)[C@H](C)NC(=O)[C@@H](NC(=O)[C@H](CCC(N)=O)NC(=O)[C@H](CCCCN)NC(=O)[C@H](CCCNC(=N)N)NC(=O)[C@H](CC(C)C)NC(=O)[C@H](CCCNC(=N)N)NC(=O)[C@@H](NC(=O)[C@H](Cc1ccc(O)cc1)NC(=O)[C@H](CC(N)=O)NC(=O)[C@H](CC(=O)O)NC(=O)[C@@H](NC(=O)[C@H](Cc1ccccc1)NC(=O)[C@@H](NC(=O)[C@H](C)NC(=O)[C@H](CC(=O)O)NC(=O)[C@H](CO)NC(=O)[C@H](Cc1c[nH]cn1)NC(=O)CCCCC)C(C)C)[C@@H](C)O)[C@@H](C)O)C(C)C)[C@@H](C)CC)[C@@H](C)O)C(N)=O)C(=O)O [Agonist P81] (Hexanoyl-HSDAVFTDNYTRLRKQVAAKKYLQSIKNSRTSPPPK([γGlu-Palmitoyl])-NH2)	0.18	0.01	0.8	228						Rat Serum Stability (Estimated purity in % after 18 hours) (10 μM peptide in rat serum, 37° C. vs 4° C. with aprotinin, 18 hours, EC50,4C/EC50,37C): 68.05%; EC50 (rat VPAC2 receptor [8]): 0.05 nM
B1					27	6.45	0.08	0.09	0.62	
Ac-HSDAVFTDNYTRLRKQVAAKKYLQSIKNSRTSPPP-NH2 [P32]						8.24	0.32	0.65	0.73	EC50 (nM) for cAMP generation, DiscoveRx (human PAC1 receptor [12]): 125 nM
HSDAVFTDNYTRLRKQVAAKKYLQSIKNSRTSPPP-NH2 [P5]					30	1.1	1.5	1.21	0.96	EC50 for cAMP generation, DiscoveRx (rat VPAC2 receptor [13]): 2.23 nM

— patent publication US20080096811A1, “[…] VPAC2 RECEPTOR PEPTIDE AGONISTS” (Eli Lilly and Company, published 2008)
